Source: patent US20140194473A1, “IMIDAZOLE FUNGICIDES” (E I Du Pont De Nemours And Company, priority 2013, published 2014)

Tests used:
Type in all cases: in vivo
Septoria tritici = experiment: Test D: wheat leaf blotch, preventive spray on wheat seedlings; conditions: 40 ppm test suspension sprayed to run-off on wheat seedlings, inoculated the following day; 100 = 100% disease control, 0 = no control; triplicate, averaged
Protocol: (§1) General protocol for preparing test suspensions for Tests A-G: the test compounds were first dissolved in acetone in an amount equal to 3% of the final volume and then suspended at the desired concentration (in ppm) in acetone and purified water (50/50 mix by volume) containing 250 ppm of the surfactant Trem® 014 (polyhydric alcohol esters). The resulting test suspensions were then used in Tests A-G. Each test was conducted in triplicate, and the results were averaged. Spraying a 40 ppm test suspension to the point of run-off on the test plants was the equivalent of a rate of about 160 g/ha. Unless otherwise indicated, the rating values indicate a 40 ppm test suspension was used.
The test suspension was sprayed to the point of run-off on wheat seedlings. The following day the seedlings were inoculated with a spore suspension of Septoria tritici (the causal agent of wheat leaf blotch) and incubated in saturated atmosphere at 24° C. for 48 h. and then the seedlings were moved to a growth chamber at 20° C. for 19 additional days, after which time visual disease ratings were made.
(§2) Results for Tests A-G are given in Table A. In the Table, a rating of 100 indicates 100% disease control and a rating of 0 indicates no disease control (relative to the controls). A hyphen (-) indicates no test results.

Alternaria solani = experiment: Test B: tomato early blight, preventive spray on tomato seedlings; conditions: 40 ppm test suspension sprayed to run-off on tomato seedlings, inoculated the following day; 100 = 100% disease control, 0 = no control; triplicate, averaged
Protocol: as §1
(§3) The test suspension was sprayed to the point of run-off on tomato seedlings. The following day the seedlings were inoculated with a spore suspension of Alternaria solani (the causal agent of tomato early blight) and incubated in a saturated atmosphere at 27° C. for 48 h, and then moved to a growth chamber at 20° C. for 5 days, after which time visual disease ratings were made.
as §2

Septoria nodorum = experiment: Test C: Septoria glume blotch, preventive spray on wheat seedlings; conditions: 40 ppm test suspension sprayed to run-off on wheat seedlings, inoculated the following day; 100 = 100% disease control, 0 = no control; triplicate, averaged
Protocol: as §1
The test suspension was sprayed to the point of run-off on wheat seedlings. The following day the seedlings were inoculated with a spore suspension of Septoria nodorum (the causal agent of Septoria glume blotch) and incubated in a saturated atmosphere at 24° C. for 48 h, and then moved to a growth chamber at 20° C. for 9 days, after which time visual disease ratings were made.
as §2

Botrytis cinerea = experiment: Test A: tomato Botrytis, preventive spray on tomato seedlings; conditions: 40 ppm test suspension sprayed to run-off on tomato seedlings, inoculated the following day; 100 = 100% disease control, 0 = no control; triplicate, averaged
Protocol: as §1
as §3, with “Botrytis cinerea” for “Alternaria solani”, “Botrytis)” for “early blight)”, “in” for “in a”, “20°” for “27°”, “24°” for “20°”, “3 additional” for “5”
as §2

[1] = tested on: Blumeria graminis f. sp. tritici; experiment: Test G: wheat powdery mildew, preventive spray on wheat seedlings; conditions: 40 ppm test suspension sprayed to run-off on wheat seedlings, inoculated with spore dust the following day; 100 = 100% disease control, 0 = no control; triplicate, averaged
Protocol: as §1
The test suspension was sprayed to the point of run-off on wheat seedlings. The following day the seedlings were inoculated with a spore dust of Blumeria graminis f. sp. tritici (also known as Erysiphe graminis f. sp. tritici, the causal agent of wheat powdery mildew) and incubated in a growth chamber at 20° C. for 8 days, after which time visual disease ratings were made.
as §2

[2] = tested on: Puccinia recondite f. sp. tritici; experiment: Test F: wheat leaf rust, preventive spray on wheat seedlings; conditions: 40 ppm test suspension sprayed to run-off on wheat seedlings, inoculated the following day; 100 = 100% disease control, 0 = no control; triplicate, averaged
Protocol: as §1
The test suspension was sprayed to the point of run-off on wheat seedlings. The following day the seedlings were inoculated with a spore suspension of Puccinia recondite f. sp. tritici (the causal agent of wheat leaf rust) and incubated in a saturated atmosphere at 20° C. for 24 h, and then moved to a growth chamber at 20° C. for 6 days, after which time visual disease ratings were made.
as §2

[3] = tested on: Puccinia recondite f. sp. tritici; experiment: Test E: wheat leaf rust, spray after inoculation of wheat seedlings; conditions: 40 ppm test suspension sprayed on wheat seedlings after inoculation (24 h incubation, then 2 days in growth chamber); 100 = 100% disease control, 0 = no control; triplicate, averaged
Protocol: as §1
Wheat seedlings were inoculated with a spore suspension of Puccinia recondite f. sp. tritici (the causal agent of wheat leaf rust) and incubated in a saturated atmosphere at 20° C. for 24 h, and then moved to a growth chamber at 20° C. for 2 days. After 2 days, the test suspension was sprayed to the point of run-off on the wheat seedlings, and then the seedlings were moved back to the growth chamber at 20° C. for 4 days. Upon removal, visual disease ratings were made.
as §2

Structure (SMILES) | Test D rating (disease control) (Septoria tritici) [%] | Test B rating (disease control) (Alternaria solani) [%] | Test C rating (disease control) (Septoria nodorum) [%] | Test A rating (disease control) (Botrytis cinerea) [%] | Test G rating (disease control) [1] [%] | Test F rating (disease control) [2] [%] | Test E rating (disease control) [3] [%]
Cc1ncn(Nc2ccc(F)cc2Cl)c1-c1ccc(F)cc1F [Compound 1, N-(2-chloro-4-fluorophenyl)-5-(2,4-difluorophenyl)-4-methyl-1H-imidazol-1-amine] | 92 | 70 | 0 | 100 | 91 | 95 | 
Cc1nc(Br)n(Nc2ccc(F)cc2Cl)c1-c1ccc(F)cc1F [Compound 2, 2-bromo-N-(2-chloro-4-fluorophenyl)-5-(2,4-difluorophenyl)-4-methyl-1H-imidazol-1-amine] | 100 | 0 | 60 | 99 | 100 | 99 | 30
Cc1ncn(Nc2ccc(Cl)cc2Cl)c1-c1ccc(F)cc1 [Compound 3] | 99 | 0 | 0 |  | 0 | 41 | 0
Cc1nc(Br)n(Nc2ccc(Cl)cc2Cl)c1-c1ccc(Cl)cc1 [Compound 5] | 99 | 0 | 0 |  | 0 | 9 | 0
Cc1nc(Br)n(Nc2ccc(Cl)cc2Cl)c1-c1ccc(F)cc1 [Compound 6] | 93 | 0 | 0 | 16 | 0 | 55 | 
Cc1ncn(Nc2ccc(Cl)cc2Cl)c1-c1ccc(F)cc1F [Compound 7, 5-(2,4-difluorophenyl)-N-(2,4-dichlorophenyl)-4-methyl-1H-imidazol-1-amine] | 100 | 0 | 0 | 100 | 91 | 97 | 0
Cc1nc(Br)n(Nc2c(Cl)cc(Cl)cc2Br)c1-c1ccc(F)cc1F [Compound 8, N-(2-bromo-4,6-dichlorophenyl)-4-methyl-2-bromo-5-(2,4-difluorophenyl)-1H-imidazol-1-amine] | 100 | 9 | 0 | 99 | 98 | 100 | 19
Cc1ncn(Nc2ccc(F)cc2F)c1-c1ccc(F)cc1F [Compound 9] | 79 | 0 | 0 | 87 | 0 | 14 | 36
Cc1nc(Br)n(Nc2ccc(F)cc2F)c1-c1ccc(F)cc1F [Compound 10, 2-bromo-N,5-bis(2,4-difluorophenyl)-4-methyl-1H-imidazol-1-amine] | 100 | 40 | 0 | 99 | 96 | 100 | 7
Fc1cc(F)c(Nn2c(Cl)nc(Cl)c2-c2ccc(Cl)cc2Cl)c(Cl)c1 [Compound 11, N-(2-chloro-4,6-difluorophenyl)-2,4-dichloro-5-(2,4-dichlorophenyl)-1H-imidazol-1-amine] | 0 | 0 | 0 | 0 | 52 | 0 | 0
Fc1ccc(-c2c(C(Cl)Cl)nc(Cl)n2Nc2ccc(F)cc2Cl)c(F)c1 [Compound 12] | 89 | 0 | 0 | 0 | 73 | 86 | 0
Fc1ccc(-c2c(CCl)nc(Cl)n2Nc2ccc(F)cc2Cl)c(F)c1 [Compound 13] | 97 | 0 | 0 | 66 | 98 | 95 | 0
Fc1ccc(Nn2c(Br)nc(Br)c2-c2ccc(Cl)cc2Cl)c(F)c1 [Compound 14] | 0 | 0 | 0 | 0 | 0 | 0 | 0
